Data reported in the supplement of paper PMC6470124.

What was measured:
[1] = absolute recovery over vacuum-assisted evaporative concentration; higher = better recovery; conditions: enrichment method: VEC
How it was run: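 Absolute recovery was calculated as (response ratio pre − unspiked)/(post − unspiked) × 100 from averages of ≥ 2 replicates. Influent (6 mL), effluent (15 mL), and surface and nanopure water (60 mL) samples were spiked with standards before concentration, after concentration, or not at all, at 200 ng/L for nanopure and surface water or 1000 ng/L for wastewater, with class- and compound-specific adjustments. Samples were evaporated at 55 °C and 20 mbar to about 0.3 mL, made up to 0.4 mL and centrifuged, then internal standards were added before LC-HRMS/MS analysis.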

[2] = absolute recovery over mixed-bed multilayer solid-phase extraction; higher = better recovery; conditions: enrichment method: SPE
How it was run: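 Wastewater (100–250 mL, adjusted to pH 6.5 and glass-fibre filtered) or 1000 mL unfiltered nanopure water was loaded on a three-layer mixed-bed cartridge and eluted with basic then acidic ethyl acetate/methanol. Standards were spiked before extraction, after it, or not at all, at 200 ng/L (water) or 1000 ng/L (wastewater), with class exceptions. Internal standards were added afterwards, then LC-HRMS/MS ran in both ionisation modes. Absolute recovery compares background-corrected response ratios of pre- versus post-spiked samples, averaged over at least two replicates.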

[3] = LC retention time (Atlantis T3, 5-95% MeOH gradient, 0.1% formic acid); higher = more retained / less polar
How it was run: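 Retention times were recorded for reference standards (purity ≥ 95%) on a polar reversed-phase C18 column (Atlantis T3, 3 × 150 mm, 3 μm) at 0.3 mL/min. Elution used water and methanol, each with 0.1% formic acid, in a gradient from 5 to 95% methanol over 17.5 min. Detection was by high-resolution tandem mass spectrometry on a QExactive Plus, with positive and negative electrospray in separate runs. Peaks were found and integrated in TraceFinder (5 ppm tolerance, at least three points per peak) and then checked by hand.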

Compound	absolute recovery ([1]; wastewater effluent) [%]	absolute recovery ([1]; wastewater influent) [%]	absolute recovery ([2]; nanopure water) [%]	absolute recovery ([2]; surface water) [%]	absolute recovery ([2]; wastewater effluent) [%]	absolute recovery ([2]; wastewater influent) [%]	LC retention time [3] [min]
COc1ccc(C(C[NH3+])C2(O)CCCCC2)cc1 (stereo unspecified) [N-N-Didesvenlafaxin]	105	91	40.5	50.1	44.7	66.6	14.1
COc1ccc2c3c1OC1C(O)CCC4C(C2)[NH+](C)CCC341 (stereo unspecified) [Dihydrocodeine]	108	100	98.5	107	94.1	97.7	9.1
CC(C)OC(=O)NC(C(=O)NC(C)c1nc2ccc(F)cc2s1)C(C)C (stereo unspecified) [Benthiavalicarb-isopropyl]	108	102	94.2	94.6	95.3	94.3	19.7
CCCC1CC(C(=O)NC(C(C)Cl)C2OC(SC)C(O)C(O)C2O)[NH+](C)C1 (stereo unspecified) [Clindamycin]	100	73.2	90.1	94.8	90	78.7	14.6
O=C(C1CCCCC1)N1CC(=O)N2CCc3ccccc3C2C1 (stereo unspecified) [Praziquantel]	88.4	89.8	98.3	86.5	87.2	98.8	19.5
CC1CC2C(C(O)CC3(C)C2CCC3(O)C(=O)CO)C2(C)C=CC(=O)C=C12 (stereo unspecified) [Methylprednisolon]	106	101	93.1	92.3	84.4	88.4	18.9
CC(C)N(C(=O)CS(=O)(=O)[O-])c1ccc(F)cc1 [Flufenacet-ESA]	112	109	89.4	84	96.3	96.4	21.4
CCCC1COC(Cn2cncn2)(c2ccc(Cl)cc2Cl)O1 (stereo unspecified) [Propiconazol]	104	101	97.2	94.8	91.8	–	21.1
c1cncc(C2CCC[NH2+]2)c1 (stereo unspecified) [Nornicotine]	111	118	65.4	–	47.9	43.6	4.38
CC(=O)Nc1ccc(O)cc1 [Paracetamol (=3-Acetamidophenol)]	101	–	76.7	–	79.1	–	10.3
C[NH2+]C(C)Cc1ccccc1 (stereo unspecified) [Methamphetamin]	100	91.3	92.5	86.6	89.3	92.5	10.6
CC(=O)Nc1c(I)c(C(=O)[O-])c(I)c(C(=O)NCCO)c1I [Ioxitalamic-acid]	103	101	59.6	65.7	76	61.4	9.16
C[NH2+]CC(c1ccc(OC)cc1)C1(O)CCCCC1 (stereo unspecified) [N-Desvenlafaxin]	105	101	76.9	82.5	76.2	85.7	14.1
CCOC(=O)C1=NN(c2ccc(Cl)cc2Cl)C(C)(C(=O)OCC)C1 (stereo unspecified) [Mefenpyr-diethyl]	84.3	87.1	98	107	96.9	95	21.1
COC(=O)c1ccccc1S(=O)(=O)[N-]C(=O)N(C)c1nc(C)nc(OC)n1 [Tribenuron-methyl]	124	119	–	24.9	38	–	18.1
O=C1NCCN1Cc1ccc(Cl)nc1 [Imidacloprid-urea]	108	104	117	108	103	94.9	13.2
CCC(=O)OC(Cc1ccccc1)(c1ccccc1)C(C)C[NH+](C)C (stereo unspecified) [Propoxyphene]	108	110	85.3	94.6	91.5	72.4	15.6
COc1ccc2c3c1OC1C(O)C=CC4C(C2)[NH+](C)CCC341 (stereo unspecified) [Codein]	104	102	90.2	92.6	91.7	93	9.16
COCCN(C(=O)C(=O)[O-])c1c(C)cccc1C [Dimethachlor-OXA]	109	107	96.8	88	92.8	87.9	18.2
O=C([O-])Cc1ccccc1Nc1c(Cl)cccc1Cl [Diclofenac]	–	98.5	102	–	–	–	20.8
Nc1ccc(C=Cc2ccc(N)cc2S(=O)(=O)[O-])c(S(=O)(=O)[O-])c1 [4-4-diamino-2,2-stilbenedisulfonic-acid]	30	–	14.5	3.4	9.1	7.8	4.15
COC(=O)C1C(OC(=O)c2ccccc2)CC2CCC1[NH+]2C (stereo unspecified) [Cocaine]	71.1	62.2	97.2	96.4	93.8	94.5	12.2
CC(C)Nc1nc(O)nc(NC(C)C)n1 [Propazine-2-hydroxy I]	104	113	103	96.9	94.2	88	12.7
CC[NH+](CC)CCNC(=O)c1cc(S(C)(=O)=O)ccc1OC [Tiaprid]	108	103	90.9	94.9	90.3	94.9	9.13
Cc1cc(Cl)ccc1OCC(=O)[O-] [MCPA]	102	103	96.1	92.9	92.7	94.2	19.3
COCCN(C(=O)CS(=O)(=O)[O-])c1c(C)cccc1C [Dimethachlor-ESA]	104	109	95.5	102	102	84.4	19.9
O=C([O-])c1cccc(Oc2ccccc2)c1 [3-Phenoxybenzoic-acid]	98.8	102	103	–	96.1	99.4	19.8

Compound	absolute recovery ([1]; wastewater effluent) [%]	absolute recovery ([1]; wastewater influent) [%]	absolute recovery ([2]; nanopure water) [%]	absolute recovery ([2]; surface water) [%]	absolute recovery ([2]; wastewater effluent) [%]	absolute recovery ([2]; wastewater influent) [%]	LC retention time [3] [min]
C=CCC1C=C(C)CC(C)CC(OC)C2OC(O)(C(=O)C(=O)N3CCCCC3C(=O)OC(C(C)=CC3CCC(O)C(OC)C3)C(C)C(O)CC1=O)C(C)CC2OC (stereo unspecified) [FK-506 (=Tacrolimus)]	56.2	–	82.7	66.5	53.5	–	22.2
CC(=O)N(C)N(C(=O)C(=O)N(C)C)c1ccccc1 [AMDOPH]	114	114	94.8	93.2	93.2	90.8	13.9
CC(C)c1ccc(NC(=O)N(C)C)cc1 [Isoproturon]	102	103	98.5	97.4	97	92.5	18.5
CC([NH3+])C12CC3CC(CC(C3)C1)C2 (stereo unspecified) [Rimantadin]	105	112	71.9	76.1	72.9	71.4	14.6
Clc1ccccc1C(c1ccccc1)(c1ccccc1)n1ccnc1 [Clotrimazol]	111	110	93.4	90.3	85.9	90.1	16.6
CSc1nnc(C(C)(C)C)c(=O)n1N [Metribuzin]	101	99.6	91.1	94.1	89.8	95.2	17.3
CCCCNC(=O)OCC#CI [IPBC (=Iodocarb)]	60.1	–	97.8	79.9	72.2	74.3	18.1
Cc1ccc(NC(=O)N(C)C)cc1Cl [Chlortoluron]	107	102	98	101	93	94.8	18.2
CCc1ccc(CCOc2ccc(CC3SC(=O)[N-]C3=O)cc2)nc1 (stereo unspecified) [Pioglitazone]	107	104	93.3	98.1	104	90.7	14.3
COc1nn(CSP(=S)(OC)OC)c(=O)s1 [Methidathion]	108	106	102	97.9	96.5	88.2	18.8
COc1cc2[nH+]c(N3CCN(C(=O)C4COc5ccccc5O4)CC3)nc(N)c2cc1OC (stereo unspecified) [Doxazosin]	107	107	92.5	114	108	56.7	15.3
CCCCc1nc(Cl)c(CO)n1Cc1ccc(-c2ccccc2-c2nn[nH]n2)cc1 [Losartan]	99.1	105	85.5	85.9	80.1	88	18.3
CC(=NC#N)N(C)Cc1ccc(Cl)nc1 [Acetamiprid]	102	90.8	110	93.8	89	–	14.3
COc1nc(NC(C)C)nc(NC(C)C)n1 [Prometon F]	104	106	88.1	95.5	91.6	92.7	15.8
Cn1cc(C(=O)Nc2ccc(F)cc2-c2ccc(Cl)c(Cl)c2)c(C(F)F)n1 [Bixafen]	109	108	95.4	101	102	76.1	20.5
Nc1nnc(-c2cccc(Cl)c2Cl)c(N)n1 [Lamotrigin]	104	97.7	96.2	96.6	91.1	96.7	12.8
Cc1cc(C)nc(NC(=O)[N-]S(=O)(=O)c2ccccc2C(=O)OC2COC2)n1 [Oxasulfuron]	111	103	107	93.3	93	83.6	16.5
CC1=NNC(=O)N(N=Cc2cccnc2)C1 [Pymetrozin]	107	110	118	112	106	97	8.65
CN1C(=O)CN=C(c2ccccc2)c2cc(Cl)ccc21 [Diazepam]	105	99.2	97.6	94.9	93.6	95.7	19.5
CCC1(c2cccc(O)c2)CCCC[NH+](C)C1 (stereo unspecified) [Meptazinol]	110	103	90.6	92.9	86.5	91.9	12.1
CCC(C)C(=O)OC1CC(C)C=C2C=CC(C)C(CCC3CC(O)CC(=O)O3)C21 (stereo unspecified) [Lovastatin]	107	106	70.5	70.9	76.1	59.5	22.2
CCc1cccc(C)c1N1C(=O)COCC1C (stereo unspecified) [Metolachlor-Morpholinon]	89.6	–	102	86.5	83.1	91.2	18.1
C[NH+](C)CC(c1ccc(O)cc1)C1(O)CCCCC1 (stereo unspecified) [O-Desvenlafaxin]	–	97.9	97.4	89.9	90.6	77.7	12
COc1cc(OC)n2nc([N-]S(=O)(=O)c3c(C(F)(F)F)ccnc3OC)nc2n1 [Pyroxsulam]	103	103	100	97.7	96.3	84.9	16.7
CCC(C)OC(=O)N1CCCCC1CCO (stereo unspecified) [Picaridin (=Icaridin)]	94.9	99.4	97.2	91.8	93.9	96.2	19
C[N+]1([O-])CCN2c3ccccc3Cc3ccccc3C2C1 (stereo unspecified) [Mianserin-N-Oxide]	100	105	93.7	103	–	81.2	15.1
